Assay results reported in PubChem BioAssay (NCI).
Several values for one entry are separate records, joined by “and”; a condition that tells them apart may be missing. Identical values can stand only once.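 Test compounds were applied to cells in 96-well plates for 48 hours at 5 doses. At the GI50, growth is halved. The concentration for full growth arrest is given as TGI.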

Assays:
Test in all cases: growth of human tumour cells (NCI), 48 h
A549 NSCLC = tested on: A549 NSCLC
BT-549 breast = tested on: BT-549 breast
HL-60(TB) leukemia = tested on: HL-60(TB) leukemia
HOP-62 NSCLC = tested on: HOP-62 NSCLC
OVCAR-3 ovarian = tested on: OVCAR-3 ovarian
SF-268 CNS = tested on: SF-268 CNS
SN12C renal = tested on: SN12C renal
SR leukemia = tested on: SR leukemia
UACC-62 melanoma = tested on: UACC-62 melanoma
NCI/ADR-RES ovarian = tested on: NCI/ADR-RES ovarian

| Structure (SMILES) | TGI (A549 NSCLC) [µM] | TGI (BT-549 breast) | TGI (HL-60(TB) leukemia) | TGI (HOP-62 NSCLC) | TGI (OVCAR-3 ovarian) [µM] | TGI (SF-268 CNS) [µM] | TGI (SN12C renal) [µM] | TGI (SR leukemia) [µM] | TGI (UACC-62 melanoma) | GI50 (A549 NSCLC) | GI50 (HOP-62 NSCLC) | GI50 (NCI/ADR-RES ovarian) | TGI (NCI/ADR-RES ovarian) [µM] | GI50 (OVCAR-3 ovarian) | GI50 (SF-268 CNS) | GI50 (SN12C renal) | GI50 (SR leukemia) [µM] | GI50 (UACC-62 melanoma) | GI50 (BT-549 breast) | GI50 (HL-60(TB) leukemia) |
| --- | --- | --- | --- | --- | --- | --- | --- | --- | --- | --- | --- | --- | --- | --- | --- | --- | --- | --- | --- | --- |
| COc1cccc2c1C(=O)C=CC2=O | 40.4 | 29.1 µM | 1.09 µM | 34.4 µM | 3.51 | 19.8 | 27.4 | 1.02 | 25.3 µM | – | – | – | – | – | – | – | – | – | – | – |
| NC1=NC(=O)/C(=C/c2ccccc2[N+](=O)[O-])C(N)=N1 | > 100 | – | > 100 µM | > 100 µM | > 100 | – | > 100 | > 100 | > 100 µM | – | – | – | – | – | – | – | – | – | – | – |
| O=C1C(Cl)=C(Nc2cccc(Cl)c2)C(=O)N1Cc1ccccc1 | 39.9 | – | – | 24.4 µM | 17.7 | 22.2 | 25.1 | 29.3 | 27.5 µM | 16.1 µM | 11.2 µM | 6.87 µM | 24.7 | 5.02 µM | 6.76 µM | 11.2 µM | 2.19 | 12.4 µM | – | – |
| O=C(Nc1c(O)[nH]c(=S)[nH]c1=O)c1ccccc1F | > 100 | – | > 100 µM | > 100 µM | > 100 | > 100 | > 100 | > 100 | > 100 µM | – | – | – | – | – | – | – | – | – | – | – |
| CC(C)(C)OC1=C(OC(C)(C)C)C(O)(c2ccccc2)C1=O (stereo unspecified) | > 100 | – | > 100 µM | – | > 100 | > 100 | > 100 | – | > 100 µM | – | – | – | – | – | – | – | – | – | – | – |
| COC(=O)C1=C(c2ccc(OC)c(OC)c2)OC(c2ccc(OC)c(OC)c2)C1 (stereo unspecified) | > 100 | – | 44.6 µM | > 100 µM | > 100 | > 100 | > 100 | > 100 | > 100 µM | – | – | – | – | – | – | – | – | – | – | – |
| CN1C(=O)CC(c2cccc(C3CC(=O)N(C)C3=O)n2)C1=O (stereo unspecified) | > 100 | – | > 100 µM | > 100 µM | > 100 | > 100 | > 100 | > 100 | > 100 µM | – | – | – | – | – | – | – | – | – | – | – |
| CC[C@]1(O)CC(OC2CC(N(C)C)C(O)C(C)O2)c2c(cc3c(c2O)C(=O)c2c(O)cccc2C3=O)[C@@H]1C(=O)OC (stereo partly specified) | 6.59 | 4.97 µM | – | 2.14 µM | 5.67 | 2.2 | 6.85 | – | 0.904 µM | – | – | – | 3.95 | – | – | – | – | – | – | – |
| C[C@@H]1COCCN1c1cc(C2([S@](C)(=N)=O)CC2)nc(-c2ccnc3[nH]ccc23)n1 | > 100 | 27.7 µM and > 10 µM | 12.8 µM and > 10 µM | 52.1 µM and > 10 µM | > 80.6 | > 100 | > 100 | – | 16.6 µM and > 10 µM | 3.46 µM and 4.02 µM | 2.86 µM and 1.75 µM | 26.2 µM and > 10 µM | > 100 | 4.16 µM and 5.15 µM | 7.1 µM and > 10 µM | 5.04 µM and 9.13 µM | – | 2.34 µM and 1.76 µM | 1.83 µM and 2.92 µM | 1.95 µM and 3.39 µM |
| NCCNc1c2c(c(NCCN)c3c(CO)c[nH]c13)C(=O)c1ccccc1C2=O | > 100 | 32 µM | > 100 µM | > 100 µM | 30.7 | 6.42 | 12.8 | – | > 100 µM | > 100 µM | 4.22 µM | > 100 µM | > 100 | 1.14 µM | 0.795 µM | 1.59 µM | – | 15.2 µM | 6.72 µM | 43.4 µM |
